Columns and labels:
Assay type in all cases: cell-based
U87 = experiment: CCK-8 cell viability assay, U87; details: CCK-8, 72 h, mean ± SD of three independent experiments
Procedure: (§1) The U87MG cell line (catalogue iCell-h224) and U251MG cell line (catalogue iCell-h219) were purchased from iCell Bioscience Inc (Shanghai) cell bank. T98G cell line was obtained from Yining Zhang’s group. All cells were cultured in DMEM supplemented with 10% (v/v) FBS and penicillin-streptomycin in a humidified incubator at 37 °C under 5% CO2. The different compounds were dissolved in DMSO at the concentration of 10 mM and diluted in serum-free medium. The GBM cells were seeded into 96-well microplates at the density of 6000 cells/well and incubated for 24 h. Fresh media supplemented with different concentrations of the compounds were added, and the cells were cultured for 72 h. The CCK-8 reagent (TargetMol, C0005) was added to each well and the cells were incubated for 4 h at 37 °C. […] the absorbance was measured at […] using a microplate reader (Genios Tecan). An untreated control group was included and its viability was set as 100%. IC50 value of the two probes was calculated using GraphPad Prism 5.0.

T98G = experiment: CCK-8 cell viability assay, T98G; details: CCK-8, 72 h, mean ± SD of three independent experiments
Procedure: as §1

U251 = experiment: CCK-8 cell viability assay, U251; details: CCK-8, 72 h, mean ± SD of three independent experiments
Procedure: as §1

LO2 = experiment: CCK-8 cytotoxicity, normal human cell line LO2
[1] = L02, mean ± SD of three independent experiments

| SMILES | IC50 (U87; Homo sapiens, U-87 MG, 72 h) | IC50 (T98G; Homo sapiens, T98G, 72 h) | IC50 (U251; Homo sapiens, U-251, 72 h) | IC50 (LO2; [1]) | IC50 (U87) | IC50 (T98G) | IC50 (U251) | IC50 (LO2; mean ± SD of three independent experiments) |
| --- | --- | --- | --- | --- | --- | --- | --- | --- |
| COc1ccc(C=C2SC(=NN=CC3=CCC4CC3C4(C)C)N(C)C2=O)cc1 (stereo not shown) [C1, 2-(((6,6-Dimethylbicyclo[3.1.1]hept-2-en-2-yl)methylene)hydrazineylidene)-5–(4-methoxybenzylidene)-3-methylthiazolidin-4-one] | 13.5 ± 0.43 µM | 9.93 ± 0.11 µM | 12.1 ± 0.31 µM | > 50 µM |  |  |  |  |
| COc1ccc(C=C2SC(=NN=CC3=CCC4CC3C4(C)C)N(C)C2=O)cc1 (stereo not shown) [C2, 2-(((6,6-Dimethylbicyclo[3.1.1]hept-2-en-2-yl)methylene)hydrazineylidene)-5–(4-methoxybenzylidene)-3-methylthiazolidin-4-one] |  |  |  |  | 11.2 ± 0.26 µM | 10.1 ± 0.8 µM | 14 ± 0.71 µM | > 50 µM |
| CSc1ccc(C=C2SC(=NN=CC3=CCC4CC3C4(C)C)N(C)C2=O)cc1 (stereo not shown) [C3, 2-(((6,6-Dimethylbicyclo[3.1.1]hept-2-en-2-yl)methylene)hydrazineylidene)-3-methyl-5–(4-(methylthio)benzylidene)thiazolidin-4-one] | 12.3 ± 0.65 µM | 16.7 ± 0.67 µM | 15.2 ± 0.32 µM | > 50 µM |  |  |  |  |
| CN1C(=O)C(=Cc2ccc(N(C)C)cc2)SC1=NN=CC1=CCC2CC1C2(C)C (stereo not shown) [C4, 5–(4-(Dimethylamino)benzylidene)-2-(((6,6-dimethylbicyclo[3.1.1]hept-2-en-2-yl)methylene)hydrazineylidene)-3-methylthiazolidin-4-one] | 7.56 ± 0.76 µM | 8.8 ± 0.31 µM | 9.7 ± 0.64 µM | > 50 µM |  |  |  |  |
| COc1cc(C=C2SC(=NN=CC3=CCC4CC3C4(C)C)N(C)C2=O)ccc1O (stereo not shown) [C6, 2-(((6,6-Dimethylbicyclo[3.1.1]hept-2-en-2-yl)methylene)hydrazineylidene)-5–(4-hydroxy-3-methoxybenzylidene)-3-methylthiazolidin-4-one] | 9.37 ± 0.43 µM | 7.5 ± 0.98 µM | 10.2 ± 0.65 µM | > 50 µM |  |  |  |  |
| CN1C(=O)C(=Cc2ccc(Cl)cc2)SC1=NN=CC1=CCC2CC1C2(C)C (stereo not shown) [C7, 5–(4-Chlorobenzylidene)-2-(((6,6-dimethylbicyclo[3.1.1]hept-2-en-2-yl)methylene) hydrazineylidene)-3-methylthiazolidin-4-one] | > 50 µM | 33.4 ± 0.77 µM | 36.8 ± 0.43 µM | > 50 µM |  |  |  |  |
| CCN(CC)c1ccc(C=C2SC(=NN=CC3=CCC4CC3C4(C)C)N(C)C2=O)cc1 (stereo not shown) [C8, 5–(4-(Diethylamino)benzylidene)-2-(((6,6-dimethylbicyclo[3.1.1]hept-2-en-2-yl)methylene) hydrazineylidene)-3-methylthiazolidin-4-one] | 42.2 ± 0.46 µM | 38.1 ± 0.78 µM | 27.2 ± 0.62 µM | > 50 µM |  |  |  |  |
| Cc1ccc(O)c(C=C2SC(=NN=CC3=CCC4CC3C4(C)C)N(C)C2=O)c1 (stereo not shown) [C9, 2-(((6,6-Dimethylbicyclo[3.1.1]hept-2-en-2-yl)methylene)hydrazineylidene)-5–(2-hydroxy-5-methylbenzylidene)-3-methylthiazolidin-4-one] | 34.1 ± 0.57 µM | 32.11 ± 0.21 µM | 36.7 ± 0.32 µM | > 50 µM |  |  |  |  |
| CN1C(=O)C(=Cc2ccc(O)c(Cl)c2)SC1=NN=CC1=CCC2CC1C2(C)C (stereo not shown) [C10, 5–(3-Chloro-4-hydroxybenzylidene)-2-(((6,6-dimethylbicyclo[3.1.1]hept-2-en-2-yl)methylene)hydrazineylidene)-3-methylthiazolidin-4-one] | 9.86 ± 0.09 µM | 8.69 ± 0.17 µM | 8.29 ± 0.78 µM | > 50 µM |  |  |  |  |
| COc1ccc(C=C2SC(=NN=CC3=CCC4CC3C4(C)C)N(C)C2=O)cc1O (stereo not shown) [C11, 2-(((6,6-Dimethylbicyclo[3.1.1]hept-2-en-2-yl)methylene)hydrazineylidene)-5–(3-hydroxy-4-methoxybenzylidene)-3-methylthiazolidin-4-one] | 13.6 ± 0.21 µM | 12 ± 0.15 µM | 14.8 ± 0.1 µM | > 50 µM |  |  |  |  |
| CCOc1cc(C=C2SC(=NN=CC3=CCC4CC3C4(C)C)N(C)C2=O)ccc1O (stereo not shown) [C12, 2-(((6,6-Dimethylbicyclo[3.1.1]hept-2-en-2-yl)methylene)hydrazineylidene)-5–(3-ethoxy-4-hydroxybenzylidene)-3-methylthiazolidin-4-one] | 9.37 ± 0.35 µM | 7.1 ± 0.51 µM | 8.01 ± 0.79 µM | > 50 µM |  |  |  |  |
| COc1ccc(C=C2SC(=NN=CC3=CCC4CC3C4(C)C)N(C)C2=O)c(O)c1 (stereo not shown) [C13, 2-(((6,6-Dimethylbicyclo[3.1.1]hept-2-en-2-yl)methylene)hydrazineylidene)-5–(2-hydroxy-4-methoxybenzylidene)-3-methylthiazolidin-4-one] | 5.71 ± 0.23 µM | 5.54 ± 0.98 µM | 6.65 ± 0.75 µM | > 50 µM |  |  |  |  |
| CN1C(=O)/C(=C\c2ccc(O)cc2F)SC1NN=CC1=CCC2CC1C2(C)C (stereo not shown) [C14, 2–(2-((6,6-Dimethylbicyclo[3.1.1]hept-2-en-2-yl)methylene)hydrazineyl)-5-((E)-2-fluoro-4-hydroxybenzylidene)-3-methylthiazolidin-4-one] | 14.4 ± 0.73 µM | 14.8 ± 0.34 µM | 11.6 ± 0.89 µM | > 50 µM |  |  |  |  |
| Cc1cc(O)ccc1/C=C1/SC(NN=CC2=CCC3CC2C3(C)C)N(C)C1=O (stereo not shown) [C15, 2–(2-((6,6-Dimethylbicyclo[3.1.1]hept-2-en-2-yl)methylene)hydrazineyl)-5-((E)-4-hydroxy-2-methylbenzylidene)-3-methylthiazolidin-4-one] | 9.12 ± 0.43 µM | 7.63 ± 0.65 µM | 9.01 ± 0.34 µM | > 50 µM |  |  |  |  |
| Cc1cc(/C=C2/SC(NN=CC3=CCC4CC3C4(C)C)N(C)C2=O)ccc1O (stereo not shown) [C16, 2–(2-((6,6-Dimethylbicyclo[3.1.1]hept-2-en-2-yl)methylene)hydrazineyl)-5-((E)-4-hydroxy-3-methylbenzylidene)-3-methylthiazolidin-4-one] | 5.83 ± 0.56 µM | 6.63 ± 0.32 µM | 7.14 ± 0.11 µM | > 50 µM |  |  |  |  |
| COc1cc(O)ccc1/C=C1/SC(NN=CC2=CCC3CC2C3(C)C)N(C)C1=O (stereo not shown) [C17, 2–(2-((6,6-Dimethylbicyclo[3.1.1]hept-2-en-2-yl)methylene)hydrazineyl)-5-((E)-4-hydroxy-2-methoxybenzylidene)-3-methylthiazolidin-4-one] | 9.18 ± 0.2 µM | 5.1 ± 0.26 µM | 6.23 ± 0.41 µM | > 50 µM |  |  |  |  |

Source: PMC12412324, “Design, synthesis, and evaluation of novel pinane-based thiazolidione derivatives with anti-glioblastoma activity” (Journal of Enzyme Inhibition and Medicinal Chemistry, 2025)
